MyD88 gene expression, IC50 and CEBPα gene expression data for one compound are collected here from patent US20120225889A1, “USE OF MACROCYCLIC LACTONE DERIVATIVES FOR THE TREATMENT OF INFLAMMATORY DISORDERS” (PIRAMAL LIFE SCIENCES LIMITED, priority 2010, published 2012).

Assay [1] relates to MyD88. In words: Gene expression profile using RTQ-PCR: MyD88. Type of assay: cell-based, human. The following applies: 3 μM. As to the method:
(§1) The effect of the compound of example 7 was measured in stimulated untreated cells from the monocytic cell line (THP-1), human monocytes and synovial cells from rheumatoid arthritis patient. The effect of the compound in the THP-1 cell line was measured in terms of gene expression and was expressed as fold changes as compared to the cell stimulated control with no drug treatment.
(§2) THP-1 cells, human monocytes and synovial cells were treated with compound of example 7 or vehicle (0.5% DMSO). Total RNA isolation using a commercial RNA extraction kit (Qiagen Corporation, Germany) The first-strand cDNA was synthesized from total RNA using first strand cDNA synthesis kit from Invitrogen Corporation (California, USA). This was followed by real time quantitative polymerase chain reaction (RTQ PCR) using gene specific primers and standard thermal program of initial denaturation at 95° C. for 5 min and cycles of 95° C. for 10 seconds, followed by 60° C. for 30 seconds (Realplex PCR machine from Eppendorf, Germany). Quantitative measurement of products made during PCR cycles was normalized against a housekeeping gene (Actin) and was used to measure the gene expression as fold changes as compared to respective control.

The subject of assay [2] is IL-2. In words: Cytokine release assay in hPBMCs: IL-2. Type of assay: cell-based. The following applies: Homo sapiens. As to the method: hPBMCs were obtained from healthy donors by centrifugation of heparinized venous blood over Ficoll/Hypaque solution (Histopaque-1077, Sigma, USA). Isolated hPBMCs were suspended in RPMI 1640 culture medium supplemented with 10% FBS and seeded at a density of 50,000 cells/well in a 96-well plate (Nunc, USA). The cells were incubated at 37° C., 5% CO2 for a period of 24 h. These cells were used for the lymphocyte proliferation as well as cytokine release assay.
The plated cells were treated with different concentrations of the test compound (prepared as mM stock in DMSO and diluted with DMSO to achieve the following final concentrations in the assay: 100, 10, 1, 0.1, 0.01, 0.001, 0.0001, 0.00001 and 0.000001 μM) and incubated for 30 min. The cells were then stimulated with PHA (prepared as 1 mg/mL stock in RPMI 1640 culture medium and used at a final concentration of 5 μg/mL). FK506 was used as a standard. The plates were incubated at 37° C., 5% CO2 for 48 h. The cytokines in the supernatant collected were detected using ELISA kit (BD biosciences, USA). The cytokines evaluated in the assay were TNF-α, IL-2, IL-6, and IFN-γ.

Assay [3] relates to IL-6. In words: Synovial tissue assay (spontaneous production): IL-6. Type of assay: cell-based. The following applies: Homo sapiens, synovial tissue cells from rheumatoid arthritis patients, 16 h, read-out: IC50 of IL-6 inhibition. The source says:
(§3) The ability of compounds of the present invention to inhibit spontaneous production of cytokines from freshly isolated human synovial tissue cells was designed as in reference, Lancet, 29, 244-247, (1989) the disclosure of which is incorporated by reference for the teaching of the assay.
(§4) Synovial tissue was obtained from rheumatoid arthritis patients undergoing knee replacement surgery. […] Subsequently, the cells were washed 3 times with RPMI 1640 culture medium and resuspended in complete medium (RPMI 1640 culture medium supplemented with 5% FBS and 5% human serum-AB+(Sigma, USA) at a concentration of 1×10^6 cells/mL. The viability of synovial cells was determined by trypan blue dye exclusion and was uniformly ≧98%. For the experiment, 100 μL of cell suspension was added to the wells of a 96-well culture plate (Nunc, USA). Following cell plating, 100 μL of the culture medium and 1 μL of various concentrations of the test compound (test compound was dissolved in DMSO to obtain a stock solution of 20 mM. […] The IC50 values were calculated by a nonlinear regression method using the GraphPad software (Prism 3.03).

In assay [4] the test system is TNF-α. In words: Synovial tissue assay (spontaneous production): TNF-α. Type of assay: cell-based. The following applies: Homo sapiens, synovial tissue cells from rheumatoid arthritis patients, 16 h, read-out: IC50 of TNF-α inhibition.
Source text: as §3, §4

The subject of assay [5] is IFN-γ. In words: Concanavalin-A-induced IFN-γ production from hPBMC. The following applies: Homo sapiens; Con-A-induced production from hPBMCs, 18 h. Type of assay: cell-based. On the procedure: Peripheral blood mononuclear cells (hPBMC) were harvested using Ficoll-Hypaque density gradient centrifugation (1.077 g/mL; Sigma Aldrich). hPBMCs were resuspended in RPMI 1640 culture medium (Gibco BRL, Pasley, UK) containing 10% FCS, 100 U/mL penicillin (Sigma Chemical Co. St Louis, Mo.) and […] streptomycin (Sigma Chemical Co. St Louis, Mo.) at 1×10^6 cells/mL. 1×10^5 hPBMCs/well were pre-treated with test compound or 0.5% DMSO (carrier control) for 30 min at 37° C. Subsequently, these cells were stimulated with 1 μg/mL concanavalin A (Sigma Chemical Co., St. Louis, Mo.). Following 18 h incubation at 37° C., supernatants were collected and stored at −70° C. until assayed for human IFN-γ by ELISA as described by the manufacturer (OptiEIA ELISA sets, BD BioSciences). In each experiment, cyclosporin (1 μM) was used as a positive control for inhibiting induced IFN-γ production.

For assay [6], the system named is CEBPα. In words: Gene expression profile using RTQ-PCR: CEBPα. Type of assay: cell-based, human. The following applies: 3 μM. On the procedure: as §1, §2
The mark [7] stands for this setting: Human monocytes, 3 h, ± SE, N = 3.

SMILES strings stand for the structures. pIC50: −log10 of the molar value. Read-outs that look alike come from different tables or passages of the source.

As for `C/C=C/C(O)C(C)/C=C/C(=N\O)C(C)C(O)C(C)C1OC(=O)/C(OC)=C/C(C)=C/C(C)C(O)C(CC)C(O)C(C)C/C(C)=C/C=C/C1OC` (centres unmarked) [Compound of example 7, (3Z,5E,13E,15E)-18-((5Z,6E,10E)-3,9-Dihydroxy-5-(hydroxymino)-4,8-dimethyldodeca-6,10-dien-2-yl)-9-ethyl-8,10-dihydroxy-3,17-dimethoxy-5,7,11,13-tetramethyl oxacyclooctadeca-3,5,13,15-tetraen-2-one], the MyD88 gene expression in assay [1] (setting [7]) is −0.2 + 1.9 log fold change; in assay [1] (Synovial cells, 12 h, N = 1) it was −0.5 log fold change; in assay [1] (THP-1 cells, 12 h, ± SE, N = 3), −0.2 + 0.2 log fold change. Further, the pIC50 (commonly the IC50 on a negative log10 scale, so that one unit is a factor of ten) in assay [2] (Table 3: PHA-PMA induced hPBMC's, 48 h, read-out: IL-2 IC50) is 8.30; in assay [3], 6.52; in assay [4], 4.72. The IC50 (usually the point on the concentration scale where inhibition reaches its midpoint) worked out at 0.007 µM in assay [2] (Table 4: mitogen stimulated production from hPBMC's, read-out: IL-2 (IC50 μM)) and 0.2 µM in assay [5]. Also, the CEBPα gene expression in assay [6] (setting [7]) is −3.9 + 0.4 log fold change; in assay [6] (Synovial cells, 12 h, N = 1), −2.4 log fold change; in assay [6] (THP-1 cells, 12 h, ± SE, N = 3), −2.1 + 2.2 log fold change.
